# Source: ChEMBL document CHEMBL1143319, “Structure-based virtual screening for novel inhibitors of the sarco/endoplasmic reticulum calcium ATPase and their experimental evaluation” (Bioorg Med Chem, 2009)
# Test: Inhibition of rabbit hind leg tissue microsomes ATPase activity of SERCA assessed as ATP hydrolysis
# Set-up: species or system Oryctolagus cuniculus
row,SMILES,IC50 [µM]
1,CC(C)(C)c1ccc(O)c(Cc2cc(C(C)(C)C)ccc2O)c1,11.8
2,CC(=O)C1=C(O)[C@@H]2[C@H]3c4c[nH]c5cccc(c45)C[C@H]3C(C)(C)N2C1=O [CYCLOPIAZONIC ACID],0.12
3,Oc1ccc(O)c(C2CCCCCCC2)c1,11.5
4,Cc1cc(C(C)(C)c2cc(C)c(O)c(C)c2)cc(C)c1O,19.5
5,Oc1cc(Cc2ccccc2)c(O)cc1Cc1ccccc1,9.4
6,Oc1ccc2ccccc2c1Cc1c(O)ccc2ccccc12,15
7,CC(C)(C)c1cc2c(cc1O)CCC2,28.1
8,CC(C)(C)c1ccc(O)c(C(c2cc(C(C)(C)C)ccc2O)c2cc(C(C)(C)C)ccc2O)c1,21.3

# The next lines start with the values.
row,IC50 [µM],SMILES
1,39.3,CCC(C)(c1ccc(O)c(C)c1)c1ccc(O)c(C)c1
2,28.3,CC(c1ccc(O)cc1)C(C)c1ccc(O)cc1 (centres undefined)
3,49.7,CC(c1ccccc1)(c1ccccc1)c1ccc(O)cc1
4,33.8,CC(c1ccccc1)c1cc(C(C)(C)C)cc(C(C)(C)C)c1O (centres undefined)
5,0.4,CC(C)(C)c1cc(O)c(C(C)(C)C)cc1O
6,23.8,Oc1cc(Cc2ccccc2)c(Cc2ccccc2)cc1O
7,17.2,CC(C)CCCCCCc1ccc(O)cc1
8,45.4,COc1ccc(C(C)c2cc(C(C)(C)C)c(O)c(C(C)(C)C)c2)cc1 (centres undefined)
9,18.8,CC(C)Cc1ccc(CC(C)C)c(O)c1
10,27.3,Oc1ccc2ccccc2c1Cc1cccc2ccccc12
11,35.3,COc1ccc(C(C)c2cc(C(C)(C)C)cc(C(C)(C)C)c2O)cc1 (centres undefined)
